Experimental data published in patent US7005298B1, “Micropropagation and production of phytopharmaceutical plants” (priority 1999, dated 2006).
Marks after values point to notes of the source that are not given here.

Experiments:
Echinacea plantlets = assay: Zinc uptake and growth of Echinacea plantlets on zinc-supplemented liquid basal medium; assay type: in vivo, Echinacea purpurea
Description: Germinating seedlings were cultured onto MS medium (Murashige & Skoog, 1962) with B5 vitamins (Gamborg et al 1968), 30 g·L^−1 sucrose and 3 g·L^−1 gelrite in Magenta boxes and incubated in a controlled environment chamber for 30 days with a 16 hour photoperiod under cool white light at 40–60 μmol·m^−2·s^−1. Mature seedlings were subcultured into 125 mL flasks containing 25 mL of basal medium supplemented with zinc at 0, 50, 100, 150 or 200 mg·L^−1 and incubated in the same chamber for 30 days (liquid baslal medium, Table 1).
In experiments designed to determine the zinc uptake in micropropagated Echinacea plantlets, petiole explants, 2 cm in length were excised from the 4 week old sterile Echinacea plants and subcultured onto induction medium comprising MS media supplemented with thidiazuron (TDZ) (0.5, 1, 5 and 10 μmol·L^−1) or BAP (1, 2.5, 5, 7.5, 10, 12.5 and 15 μmol·L^−1) alone or in combination with indoleacetic acid (IAA) at concentrations of 5 and 10 μmol·L^−1. […] Regeneration was quantified after 25 and 33 days for all petiole cultures and roots after 33 and 42 days of culture. […]
Plants were harvested on day 45 after treatments were initiated. […] Fresh weight of individual plantlets was determined prior to air drying at 90° C. for 48 hours. […] The zinc content of the samples was determined using an AA55 Varian Atomic Absorption Spectrophotometer or by ICP Analysis. […]

livestock growth = settings: animal feeds supplemented with 3000 ppm inorganic zinc; cited from earlier work
[1] = tested on: uptake of serotonin, dopamine, noradrenaline, GABA and L-glutamate; settings: animal cell cultures; cited from earlier work
[2] = tested on: Echinacea purpurea petiole explants; assay: Regeneration of Echinacea purpurea petiole explants on induction medium (BAP, TDZ, IAA); assay type: cell-based; settings: for Number of regenerants/petiole: after 33 days of culture
Description: The design of all experiments was a complete randomized block and treatments consisted of five replications. All the experiments were repeated at least twice and the data were analyzed using SAS Version 6.12 (SAS Inc., 1995). Significant differences between means were assessed by a Student-Neuman-Keulls means separation test at P≦0.05.
Germinating seedlings were cultured onto MS medium (Murashige & Skoog, 1962) with B5 vitamins (Gamborg et al 1968), 30 g·L^−1 sucrose and 3 g·L^−1 gelrite in Magenta boxes. Petiole explants, 2 cm in length were excised from 4 week old sterile Echinacea purpurea plants and cultured onto induction medium comprising MS media supplemented with thidiazuron (TDZ) (0.5, 1, 5 and 10 μmol·L^−1) or BAP (1, 2.5, 5, 7.5, 10, 12.5 and 15 μmol·L^−1). TDZ was added to the media at concentrations of 0.5 and 1.0 μmmol·L^−1 in combination with indole acetic acid (IAA, an auxin) at concentrations of 5 and 10 μmol·L^−1. Explants cultured on media containing TDZ and IAA were subcultured onto MS basal media after 23 days while those cultured on media containing higher concentrations of TDZ were subcultured onto MS basal media after 4 and 8 days. All treatments consisted of 10 plates per treatment and 6 explants per plate. Treatments were incubated in a growth cabinet with a 16 hour photoperiod under cool white light at 40–60 μmol·m^−2·s^−1. Regeneration was quantified after 25 and 33 days for all petiole cultures and roots after 33 and 42 days of culture. The resulting regenerants were excised from petioles and subcultured onto MS basal media in test tubes for germination after 32 days of culture.

[3] = tested on: St. John's wort plantlets; assay: Lithium accumulation and growth of St. John's wort plantlets on lithium-supplemented liquid basal medium; assay type: in vivo, Hypericum perforatum
Description: St. John's wort seedlings were obtained from sterilized seeds germinated in a controlled environment. St. John's wort seeds were sterilized by immersing in a 70% ethanol solution for 5 s, followed by an immersion in a 30% solution of 5.4% sodium hypochlorite (Lilo Products, Hamilton, Ontario) in water with one drop of Tween 20 per 500 mL for 20 min, and a three times rinse in sterile distilled water. Sterile seeds were germinated and maintained on water agar (8 g·L^−1) for 16 days in darkness in a growth cabinet at 24° C. Individual seedlings were cultured in Magenta boxes on a medium containing MS medium (Murashige and Skoog, 1962), B5 vitamins (Gamborg et al 1968), 30 g·L^−1 sucrose and 3 g·L^−1 gellan gum (Gelrite, Schweitzerhall Inc., South Plainfield, N.J., USA). Seedling cultures were incubated in a growth cabinet with a 16 hour photoperiod under cool white light at 40–60 μmol·m^−2·s^−1. After 30 days, seedlings were excised from the Magenta boxes and subcultured into 125 mL flasks containing 25 mL of a basal medium containing MS medium (Murashige and Skoog, 1962), B5 vitamins (Gamborg et al 1968) and 30 g·L^−1 sucrose. […]
In a second series of experiments, the lithium accumulation of regenerated St. John's wort shoots was determined. […]
Samples were harvested from the cultures analysed for lithium with the same protocol as described above.

[Zn] [zinc]
appearance of plants (Echinacea plantlets; 50, 100 and 150 mg·L^−1 zinc treatment groups): appeared normal and healthy
plantlet growth (Echinacea plantlets; higher concentrations of zinc in the medium (above 150 mg·L^−1)): some inhibition of growth was observed
muscle and protein accretion and rate of growth (livestock growth): more rapid muscle and protein accretion and an overall acceleration in the rate of growth

hyperforin
uptake of serotonin, dopamine, noradrenaline, GABA and L-glutamate [1]: inhibition of uptake

c1ccc(CNc2ncnc3[nH]cnc23)cc1 [BAP, benzylaminopurine]
Number of regenerants/petiole ([2]; BAP 1 μmol·L^−1): 5.4^ab
Number of regenerants/petiole ([2]; BAP 2.5 μmol·L^−1): 8.1^a
Number of regenerants/petiole ([2]; BAP 5 μmol·L^−1): 6.6^ab
Number of regenerants/petiole ([2]; BAP 7.5 μmol·L^−1): 5.2^ab
Number of regenerants/petiole ([2]; BAP 10 μmol·L^−1): 3.9^b
Number of regenerants/petiole ([2]; BAP 12.5 μmol·L^−1): 5.2^ab
Number of regenerants/petiole ([2]; BAP 15 μmol·L^−1): 5.5^ab
de novo shoot formation ([2]; BAP as the sole growth regulating compound, all concentrations): induced de nova shoot formation at all concentrations
callus formation and elongation of the petioles ([2]; culture medium supplemented with BAP): induce callus formation and elongation of the petioles

[Li] [lithium]
appearance of plantlets ([3]; all treatment levels (0–200 mg·L^−1 lithium)): appeared healthy
growth rate ([3]; lithium supplementation of the culture medium, all treatment levels): unaffected
